# Measured values as given in patent publication US20170215424A1 (SUMITOMO CHEMICAL COMPANY, LIMITED, priority 2014, published 2017).
# Assays:
# Format in all cases: in vivo
# [1] = test system: Culexpipienspallens; experiment: Test Example 3: spray knockdown test on Culexpipienspallens imagoes; conditions: 0.25 h, oil solution 0.1% w/v, 0.5 ml sprayed, within 15 minutes, read-out: knockdown ratio of the test vermin within 15 minutes
# Description: (§1) A formulation containing each of the present amide compounds (1), (2), (4), (5), (6), (7), (8), (9), (10), (12), (13), (14), (15), (16), (18), (19), (21), (22), (24), (25), (26) and (27) prepared in accordance with Formulation Example 7 was diluted with an isopropyl alcohol/deodorized kerosine=1/9 mixed liquid so that the active ingredient concentration became 0.1% w/v, to prepare a drug solution for a test.
# Ten imagoes of Culexpipienspallens were allowed to release in a polyethylene cup (bottom surface diameter 10.6 cm), and the cup was covered with a 16 mesh nylon gauze. The polyethylene cup was arranged on a bottom of a chamber for a test (bottom surface: 46 cm×46 cm, height: 70 cm). From a height of 30 cm from an upper surface of the polyethylene cup, 0.5 ml of the drug solution for a test was sprayed using a spray gun (spraying pressure 0.4 kg/cm^2). After spraying, the cup was immediately taken out from the chamber for a test, the number of knocked down vermin was counted for 15 minutes with time, and a knockdown ratio was obtained. The knockdown ratio was calculated by the following expression.
# (§2) Knockdown ratio (%)=(number of knocked down vermin/number of test vermin)×100
# [2] = test system: Blattella germanica; experiment: Test Example 1: spray knockdown test on Blattella germanica; conditions: 0.25 h, 10 vermin, oil solution 2.0% w/v, 1.5 ml sprayed, within 15 minutes, read-out: knockdown ratio of test vermin within 15 minutes
# Description: as §1, with “(4),” for “(4), (5), (6), (7),”, “(8),” for “(8), (9), (10),”, “(20),” for “(19), (21), (22),”, “(27)” for “(26)”, “(28)” for “(27)”, “2.0%” for “0.1%”
# Ten vermin of Blattella germanica (male female each five vermin) were allowed to release in a container for a test in which a butter was applied on an inner wall (diameter 8.75 cm, height 7.5 cm, bottom face covered with 16 mesh wire net), and the container was arranged on a bottom of a chamber for a test (bottom surface: 46 cm×46 cm, height: 70 cm). From a height of 60 cm from an upper side of the container, 1.5 ml of the drug solution for a test was sprayed using a spray gun (spraying pressure 0.42 kg/cm^2). Thirty seconds after spraying, the container was taken out from the chamber for a test, the number of vermin which had been knocked down was counted for 15 minutes with time, and a knockdown ratio was obtained. The knockdown ratio was calculated by the following expression.
# as §2
# [3] = test system: Spodopteralitura; experiment: Test Example 7: cabbage spray test on fourth instar larvae of Spodopteralitura; conditions: 500 ppm spray, 20 ml/cup, after 4 days
# Description: A formulation containing the present amide compound (25) prepared in accordance with Formulation Example 15 was diluted with water so that active ingredient concentration became 500 ppm, to preparer a spray solution for a test. On the other hand, a cabbage was planted in a polyethylene cup, and grown until a third true leaf or a fourth true leaf developed. On the cabbage, the spray solution for a test was sprayed at a rate of 20 ml/cup. After the drug solution which had been spraying-treated on the cabbage was dried, ten fourth instar larvae of Spodopteralitura were parasitized. The number of live vermin of Spodopteralitura on a cabbage leaf was investigated after 4 days, and a controlling value was obtained according to the following expression. Controlling value (%)={1−(Cb×Tai)/(Cai×Tb)}×100 In addition, letters in the equation represent the following meanings. Cb: Number of vermin before treatment of non-treated section Cai: Number of vermin at observation of non-treated section Tb: Number of vermin before treatment of treated-section Tai: Number of vermin at observation of treated-section
# [4] = test system: Adoxophyesoranafasciata; experiment: Test Example 8: apple seedling spray test on first instar larvae of Adoxophyesoranafasciata; conditions: first instar larvae of Adoxophyesoranafasciata on apple seedlings; 500 ppm spray, 20 ml; seven days after spraying
# Description: A formulation of the present amide compound (9) prepared in accordance with Formulation Example 15 was diluted with water so that the active ingredient concentration became 500 ppm, to prepare a spray solution for a test. On the other hand, 20 ml of the spray solution for a test was spraying-treated on each of apple seedlings (28 days after seeding, tree height about 15 cm) planted in a plastic cup. After the drug solution which had spray-treated on the apple was air-dried to an extent that the drug solution was dried, about 30 first instar larvae of Adoxophyesoranafasciata were released. Seven days after spraying, the number of live vermin on an apple seedling was investigated, and a controlling value was obtained according to the following expression. Controlling value (%)={1−(Cb×Tai)/(Cai×Tb)}×100 In addition, letters in the expression indicate the following meanings. Cb: Number of vermin before treatment of non-treated section Cai: Number of vermin at observation of non-treated section Tb: Number of vermin before treatment of treated-section Tai: Number of vermin at observation of treated-section
SMILES,pest or weed control at 0.1 % strength [1] [%],pest or weed control at 2 % strength [2] [%],controlling value [3] [%],controlling value [4] [%]
"O=C(NCC1CCOC1)C1=NOC(COCc2ccccc2)CC1 (stereo not drawn) [present amide compound (26), N-(tetrahydrofuran-3-ylmethyl)-6-benzyloxymethyl-5,6-dihydro-4H-[1,2]oxazine-3-carboxamide]",≥ 80,,,
"O=C(NCC1CCOC1)C1=NOC(CCCCOc2ccccc2)C1 (stereo not drawn) [present amide compound (8), N-(tetrahydrofuran-3-ylmethyl)-5-(4-phenoxybutyl)-4,5-dihydroisoxazole-3-carboxamide]",≥ 80,≥ 80,,
O=C(NCC1CCOC1)C1=COC(COCc2ccccc2)CC1 (stereo not drawn),,≥ 80,,
"O=C(NCC1CCOC1)C1=NOC(CCCCCCOCc2ccccc2)C1 (stereo not drawn) [present amide compound (16), N-(tetrahydrofuran-3-ylmethyl)-5-(6-benzyloxyhexyl)-4,5-dihydroisoxazole-3-carboxamide]",≥ 80,≥ 80,,
"O=C(NCC1CCOC1)C1=NOC(COc2cccc(Cl)c2)CC1 (stereo not drawn) [present amide compound (25), N-(tetrahydrofuran-3-ylmethyl)-6-(3-chloro-phenoxymethyl)-5,6-dihydro-4H-[1,2]oxazine-3-carboxamide]",≥ 80,≥ 80,≥ 80,
"O=C(NCC1CCOC1)C1=NOC(COc2ccc3ccccc3c2)C1 (stereo not drawn) [present amide compound (19), N-(tetrahydrofuran-3-ylmethyl)-5-(2-naphthyloxymethyl)-4,5-dihydroisoxazole-3-carboxamide]",≥ 80,,,
"O=C(NCC1CCOC1)C1=NOC(CCCOCc2ccccc2)C1 (stereo not drawn) [present amide compound (13), N-(tetrahydrofuran-3-ylmethyl)-5-(3-benzyloxypropyl)-4,5-dihydroisoxazole-3-carboxamide]",≥ 80,≥ 80,,
"O=C(NCC1CCOC1)C1=NOC(CCCCCOCc2ccccc2)C1 (stereo not drawn) [present amide compound (15), N-(tetrahydrofuran-3-ylmethyl)-5-(5-benzyloxypentyl)-4,5-dihydroisoxazole-3-carboxamide]",≥ 80,≥ 80,,
"O=C(NCC1CCOC1)C1=NOC(COc2ccccc2)CC1 (stereo not drawn) [present amide compound (24), N-(tetrahydrofuran-3-ylmethyl)-6-phenoxymethyl-5,6-dihydro-4H-[1,2]oxazine-3-carboxamide]",≥ 80,≥ 80,,
"O=C(NCC1CCOC1)C1=NOC(CCCOCCc2ccccc2)C1 (stereo not drawn) [present amide compound (18), N-(tetrahydrofuran-3-ylmethyl)-5-(3-phenethyloxypropyl)-4,5-dihydroisoxazole-3-carboxamide]",≥ 80,≥ 80,,
"CCCCCC1CC(C(=O)NCC2CCOC2)=NO1 (stereo not drawn) [present amide compound (2), N-(tetrahydrofuran-3-ylmethyl)-5-pentyl-4,5-dihydroisoxazole-3-carboxyamide]",≥ 80,≥ 80,,
"O=C(NCC1CCOC1)C1=NOC(COCc2ccc3ccccc3c2)C1 (stereo not drawn) [present amide compound (20), N-(tetrahydrofuran-3-ylmethyl)-5-(2-naphthylmethyloxymethyl)-4,5-dihydroisoxazole-3-carboxamide]",,≥ 80,,
"CCCCC1CC(C(=O)NCC2CCOC2)=NO1 (stereo not drawn) [present amide compound (1), N-(tetrahydrofuran-3-ylmethyl)-5-butyl-4,5-dihydroisoxazole-3-carboxamide]",≥ 80,≥ 80,,
"O=C(NCC1CCOC1)C1=NOC(CCOc2ccccc2)C1 (stereo not drawn) [present amide compound (6), N-(tetrahydrofran-3-ylmethyl)-5-(2-phenoxyethyl)-4,5-dihydroisoxazole-3-carboxamide]",≥ 80,,,
"CC1C(C(=O)NCC2CCOC2)=NOC1COc1ccccc1 (stereo not drawn) [present amide compound (22), N-(tetrahydrofuran-3-ylmethyl)-4-methyl-5-phenoxymethyl-4,5-dihydroisoxazole-3-carboxamide]",≥ 80,,,
"O=C(NCC1CCOC1)C1=NOC(CCCOc2ccccc2)C1 (stereo not drawn) [present amide compound (7), N-(tetrahydrofran-3-ylmethyl)-5-(3-phenoxypropyl)-4,5-dihydroisoxazole-3-carboxamide]",≥ 80,,,
"O=C(NCC1CCOC1)C1=NOC(CCCOCc2ccc3ccccc3c2)C1 (stereo not drawn) [present amide compound (21), N-(tetrahydrofuran-3-ylmethyl)-5-(2-naphthylmethyloxypropyl)-4,5-dihydroisoxazole-3-carboxamide]",≥ 80,,,
"O=C(NCC1CCOC1)C1=NOC(CCc2ccccc2)C1 (stereo not drawn) [present amide compound (4), N-(tetrahydrofuran-3-ylmethyl)-5-phenethyl-4,5-dihydroisoxazole-3-carboxamide]",≥ 80,≥ 80,,
"O=C(NCC1CCOC1)C1=NOC(CCCCOCc2ccccc2)C1 (stereo not drawn) [present amide compound (14), N-(tetrahydrofuran-3-ylmethyl)-5-(4-benzyloxybutyl)-4,5-dihydroisoxazole-3-carboxamide]",≥ 80,≥ 80,,
"O=C(NCC1CCOC1)C1=NOC(CCCCCCOc2ccccc2)C1 (stereo not drawn) [present amide compound (10), N-(tetrahydrofuran-3-ylmethyl)-5-(6-phenoxyhexyl)-4,5-dihydroisoxazole-3-carboxamide]",≥ 80,,,
"O=C(NCC1CCOC1)C1=NOC(CCOCc2ccccc2)C1 (stereo not drawn) [present amide compound (12), N-(tetrahydrofuran-3-ylmethyl)-5-(2-benzyloxyethyl)-4,5-dihydroisoxazole-3-carboxamide]",≥ 80,≥ 80,,
"O=C(NCC1CCOC1)C1=NOC(CCCCCOc2ccccc2)C1 (stereo not drawn) [present amide compound (9), N-(tetrahydrofuran-3-ylmethyl)-5-(5-phenoxypentyl)-4,5-dihydroisoxazole-3-carboxamide]",≥ 80,,,100
"O=C(NCC1CCOC1)C1=NOC(COc2ccccc2)C1 (stereo not drawn) [present amide compound (5), N-(tetrahydrofran-3-ylmethyl)-5-(phenoxymethyl)-4,5-dihydro isoxazole-3-carboxamide]",≥ 80,,,
"O=C(NCC1CCOC1)C1=COC(COc2ccccc2)CC1 (stereo not drawn) [present amide compound (27), N-(tetrahydrofuran-3-ylmethyl)-6-phenoxymethyl-5,6-dihydro-4H-pyrane-3-carboxamide]",≥ 80,≥ 80,,
